According to publication PMC3341351, “Down-Regulation of GABAA Receptor via Promiscuity with the Vasoactive Peptide Urotensin II Receptor. Potential Involvement in Astrocyte Plasticity” (PLoS ONE, 2012):

What was measured:
Assay type in all cases: cell-based
[1] = system: GABAAR co-expressed with UT^HA 351, UT^HA 332 or UT^HA 319; assay: Patch-clamp of Iso-evoked current in CHO co-expressing GABAAR and shorter truncated UT (UT^HA 351, UT^HA 332, UT^HA 319); conditions: hUII 10^−8 M, 1 min; Iso 10^−4 M, 2 s
From the text: For UT epitope-tagged with HA (UT^HA), or c-myc (UT^c-myc), human UT receptor cDNA inserted into pcDNA3.1 (Ressource Center, MI, USA) was amplified and PCR products were subcloned using the EcoRI and XhoI sites of pCMV-HA or pCMV-c-myc. Mutant UT receptor cDNAs were constructed by oligonucleotide-directed mutagenesis (Expand High Fidelity PCR System; Roche) using the human UT receptor cDNA inserted into pcDNA3.1 as a template. Two sets of forward and reverse oligonucleotides were used (Table S2) to introduce stop codons in frame of Leu370, Phe351, Gly332 and Thr319 (to generate UT371, UT351, UT332 and UT319, respectively). PCR products were subcloned using the EcoRI and XhoI sites of pCMV-HA after digestion by the same restriction enzymes. Mutagenesis was confirmed by automated nucleotide sequencing.
The conventional whole-cell configuration of the patch-clamp technique was used to study the GABA-gated currents in astrocytes and granule neurons, UT stably transfected CHO, CHO-UT, and CHO transiently transfected with diverse variants of UT and GABAAR subunits. After 24-h transfection, cell culture coverslips were placed in a small chamber (1.5 ml) on a stage of a right microscope DMLFSA (Leica, Heidelberg, Germany) and superfused continuously with the following bath solution containing (in mM): NaCl, 150; KCl, 2.5; HEPES, 5; CaCl2, 2; MgCl2, 1; glucose, 10 (pH 7.4 adjusted with NaOH). […]

[2] = system: α2β3γ2 GABAAR in the absence of UT; assay: Patch-clamp of Iso-evoked current in CHO expressing α2β3γ2 GABAAR without UT; conditions: DMCM 10^−5 M; hUII and URP 10^−8 M; [Orn^5]-URP and palosuran 10^−6 M; Iso 10^−4 M, 2 s; n = 3–18
Procedure: (§1) For transfection, cells were trypsinized (0.05%), triturated in HamF-12 containing 10% FBS media, pelleted by centrifugation, resuspended in 100 µl solution V for nucleofection by an Amaxa Nucleofector Device (Köln, Germany; set to program U-016). Experiments were performed on normal CHO or on the stable CHO-UT cells and transiently transfected with combinations of cDNA encoding α2β3γ2, α2β3γ1, α2β1γ2, α2β3γ1, α2β3, β3γ2 (4 µg of cDNA total/transfection) GABAAR subunits. Cells were seeded on 14-mm poly-L-lysine-coated glass bottom insert dishes at 5×10^5 cells in a volume of 0.5 ml/dish. Cells were incubated overnight at 37°C in a humidified incubator (5% CO2) during 16 h before electrophysiological or immunocytochemical experiments.
GABAA receptor cDNA clones; α2, β1, β3, γ1 and γ2L engineered into the expression vector pCDM8 ([…], β1, γ2) or pcDNA/Amp (β3, γ1), were generously provided by Dr Wingrove (Merk Sharp and Dohme, Harlow, UK). To obtain β3 ^HA or γ2 ^HA epitope-tagged subunits, β3 or γ2 cDNA was amplified and the PCR product was subcloned using the SalI and NotI sites of pCMV-HA (Table S2) after digestion by the same restriction enzymes.
The conventional whole-cell configuration of the patch-clamp technique was used to study the GABA-gated currents in astrocytes and granule neurons, UT stably transfected CHO, CHO-UT, and CHO transiently transfected with diverse variants of UT and GABAAR subunits. After 24-h transfection, cell culture coverslips were placed in a small chamber (1.5 ml) on a stage of a right microscope DMLFSA (Leica, Heidelberg, Germany) and superfused continuously with the following bath solution containing (in mM): NaCl, 150; KCl, 2.5; HEPES, 5; CaCl2, 2; MgCl2, 1; glucose, 10 (pH 7.4 adjusted with NaOH). The patch pipettes were fabricated from 1.5 mm (outer diameter) soft glass tubes on a two-step vertical pipette puller (List-Medical, L/M-3P-A, Darmstadt, Germany). […] ATP and GTP were added to the internal solution used to fill electrode just before recording. All recordings were obtained at RT with cells voltage-clamped at −70 mV. The GABAA receptor agonist isoguvacine was prepared in the extracellular solution and was applied to cells by pneumatic pressure ejection. To prevent desenzitization, isoguvacine was more often ejected during 5 s at 2-min intervals. ATP, GTP, or guanosine 5′-O-(2-thiodiphosphate) (GDPβS) were administered through the patch pipette solution. We investigated the effect of competitive inhibition of GDP-GTP exchange by including GDPβS in the pipette solution (in addition to the normal amount of GTP). For GDPβS and the KIC, immediately following patch rupture, GABA current recordings were performed and the experiment was commenced after an equilibration period of 15 min. […]

[3] = system: α2β3 GABAAR co-expressed with human UT; assay: Patch-clamp of Iso-evoked current in CHO-UT expressing α2β3 GABAAR; conditions: hUII 10^−13 to 10^−7 M; Iso 10^−4 M, 2 s; −60 mV
Procedure: CHO-K1 cell lines were obtained from American Type Culture Collection (Manassas, VA, USA). The human UT stable CHO (CHO-UT) was generously provided by Dr Christophe Dubessy (Inserm, Rouen University, France) et generated by CHO electroporation with 20 µg pIRES-neo2-UT DNA and 500 µg sterile sonicated salmon sperm DNA using the EasyJect One electroporation system (Equibio, Angleur, Belgium), followed by repetitive rounds of limiting dilution of cells in G-418 (400 µg/ml) for selection. Normal or stable CHO was grown in Ham-F12 medium supplemented with 10% FBS, 1% antibiotic-antimicotic solution and 2 mM glutamine, at 37°C in a humidified incubator with an atmosphere of 5% CO2. The stable CHO-UT medium was supplemented with the antibiotic G-418 (40 µg/ml).
as §1, with “Cells were incubated overnight at 37°C in a humidified incubator (5% CO2) during 16 h before electrophysiological or immunocytochemical experiments.” left out

Sequence: ETPDCFWKYCV (disulfide) [hUII, human urotensin II, synthesized by solid phase methodology]
- hUII effect on GABAAR activity with shorter truncated UT forms [1]: totally failed to alter the GABAAR activity
- Effect on Iso-evoked current in the absence of UT [2]: failed to affect the amplitude of the current
- Inhibitory effect on Iso-evoked current, α2β3 [3]: totally ineffective
